Experimental data published in patent publication US20240050463A1, “THERAPEUTIC COMPOSITIONS AND METHODS FOR TREATING HEPATITIS B” (ARBUTUS BIOPHARMA CORPORATION, priority 2016, published 2024).

How the values were obtained:
[1] = test system: HBV rcDNA in AML12-HBV10 cells; assay: Inhibition of rcDNA in AML12-HBV10 cells (bDNA assay), checkerboard, MacSynergy II; assay type: cell-based, HBV (mouse hepatocyte cell line); settings: Hepatitis B virus, AML12HBV10, in Mus musculus, expected from additive interaction; Compound 3 0.3125 μM; ETV μM in c0 of the row
Experimental: The two inhibitors were tested both singly as well as in combinations in a checkerboard fashion such that each concentration of inhibitor A was combined with each concentration of inhibitor B to determine their combination effects on inhibition of rcDNA production.

[2] = test system: D type HBV in primary human hepatocytes (PHH); assay: HBV DNA in culture supernatants of HBV-infected primary human hepatocytes (qPCR), MacSynergy; assay type: cell-based; settings: COMPOUND 25 0.00 nM
Experimental: The mouse liver perfusion was applied to isolate PHHs. The isolated hepatocytes were further purified by Percoll. The cells were resuspended with culture media and seeded into the 96-well plates (6×10^4 cell/well) or 48-well plates (1.2×10^5 cell/well). The PHHs were infected with a D type HBV one day post seeding (day 1).
On day 2, the test compounds were diluted and added into the cell culture plates. The culture media containing the compounds were refreshed every other day. The cell culture supernatants were collected on day 8 for the HBV DNA and antigen determinations.
The compounds were tested at 7 concentrations, 3-fold dilution, in triplicate.
Two compounds were tested at 5×5 matrix, in triplicate plates.
DNA in the culture supernatants harvested on days 8 were isolated with QIAamp 96 DNA Blood Kit (Qiagen-51161). For each sample, 100 μl of the culture supernatants was used to extract DNA. The DNA was eluted with 100 μl, 150 μl or 180 μl of AE. HBV DNA in the culture supernatants was quantified by qPCR. The combination effect was analyzed by the MacSynergy software. The primers are described below.

hepatitis B virus (HBV) = assay: Serum HBsAg in humanized liver chimeric mouse model of chronic HBV infection (GS HBsAg EIA 3.0); assay type: in vivo; settings: Compound 3 oral 100 mg/kg twice daily, SIRNA-NP intravenous 3 mg/kg every 2 weeks, ETV oral 1.2 μg/kg daily, pegIFN α-2a subcutaneous 30 μg/kg twice a week
Experimental: This work was conducted in a well-established humanized liver chimeric mouse model of chronic hepatitis B virus (HBV) infection (Tsuge et al., Hepatology, 42(5), 1046-54 (2005)). A persistent level of HBV infection was established in the animals prior to the treatment phase which started at Day 0.
The anti-HBV effects were assessed based on serum HBsAg levels using the GS HBsAg EIA 3.0 enzyme linked immunosorbent assay kit from Bio-Rad Laboratories as per manufacturer instructions; and serum HBV DNA levels measured from total extracted DNA using a quantitative PCR assay (primer/probe sequences from Tanaka et al., Journal of Medical Virology, 72, 223-229 (2004)).

Row | Compound | inhibition at 0.3125 µM [1] | AVERAGE % INHIBITION, HBV DNA ([2]; COMPOUND 3 61.73 nM) | AVERAGE % INHIBITION, HBV DNA ([2]; COMPOUND 3 185.19 nM) | AVERAGE % INHIBITION, HBV DNA ([2]; COMPOUND 3 555.56 nM) | AVERAGE % INHIBITION, HBV DNA ([2]; COMPOUND 3 1666.67 nM) | AVERAGE % INHIBITION, HBV DNA ([2]; COMPOUND 3 5000.00 nM) | Serum HBsAg (± SEM) (hepatitis B virus (HBV); Day 0 (start of treatment)) | Serum HBsAg (± SEM) (hepatitis B virus (HBV); Day 21)
1 | CC[C@@H](C)NS(=O)(=O)c1ccc(F)c(C(=O)Nc2ccc(F)c(F)c2)c1 [Compound 3] | 71% | −28.13% | −25.93% | −3.32% | 25.94% | 74.78% | – | –
2 | C=C1[C@H](CO)[C@@H](O)C[C@@H]1n1cnc2c(=O)[nH]c(N)nc21 [ETV, Entecavir] | – | – | – | – | – | – | 2649 ± 282 IU/mL | 2975 ± 629 IU/mL
